Earlier results, collected in article PMC6321136, “Combined In Vitro Studies and in Silico Target Fishing for the Evaluation of the Biological Activities of Diphylleia cymosa and Podophyllum hexandrum” (Molecules, 2018).
Read-outs that look alike come from different tables or passages of the source.

What was measured:
Anti-Inflammatory model [1] = tested on: Anti-Inflammatory model; set-up: method as in PubChem Bioassay AID 489033; settings: ref PubChem Bioassay AID 489033; cited from earlier work
[2] = tested on: Agonist, thyroid stimulating hormone receptor (TSHR); set-up: method as in PubChem Bioassay AID 1224843; settings: ref PubChem Bioassay AID 1224843; cited from earlier work
[3] = tested on: Activators, heat shock response; set-up: method as in PubChem Bioassay AID 743228; settings: ref PubChem Bioassay AID 743228; cited from earlier work
Anticancer, Leukemia [4] = tested on: Anticancer, Leukemia; set-up: method as in PubChem Bioassay AID 258; settings: ref PubChem Bioassay AID 258; cited from earlier work
[5] = tested on: Cytotoxicity, Agonist, nuclear factor kappa B subunit 1; set-up: method as in PubChem Bioassay AID 1159515; settings: ref PubChem Bioassay AID 1159515; cited from earlier work
Agonist, AP-1 = tested on: Agonist, AP-1; set-up: method as in PubChem Bioassay AID 1159528; settings: ref PubChem Bioassay AID 1159528; cited from earlier work
Agonist, Histone H2A.x = tested on: Agonist, Histone H2A.x; set-up: method as in PubChem Bioassay AID 1224845; settings: ref PubChem Bioassay AID 1224845; cited from earlier work
Anti-Inflammatory model [6] = tested on: Anti-Inflammatory model; set-up: method as in PubChem Bioassay AID 435020; settings: ref PubChem Bioassay AID 435020; cited from earlier work
[7] = tested on: Antagonist, androgen receptor (AR); set-up: method as in PubChem Bioassay AID 743063; settings: ref PubChem Bioassay AID 743063; cited from earlier work
[8] = tested on: Antagonist, androgen receptor (AR); set-up: method as in PubChem Bioassay AID 1259247; settings: ref PubChem Bioassay AID 1259247; cited from earlier work
[9] = tested on: Cytotoxicity, Agonist, vitamin D receptor (VDR); set-up: method as in PubChem Bioassay AID 743224; settings: ref PubChem Bioassay AID 743224; cited from earlier work
[10] = tested on: Cell Cycle Modulation (counterscreen); set-up: method as in PubChem Bioassay AID 1117349; settings: ref PubChem Bioassay AID 1117349; cited from earlier work
[11] = tested on: Antagonist, vitamin D receptor (VDR); set-up: method as in PubChem Bioassay AID 743242; settings: ref PubChem Bioassay AID 743242; cited from earlier work
Anticancer, Sarcoma = tested on: Anticancer, Sarcoma; set-up: method as in PubChem Bioassay AID 292; settings: ref PubChem Bioassay AID 292; cited from earlier work
Anticancer, Leukemia [12] = tested on: Anticancer, Leukemia; set-up: method as in PubChem Bioassay AID 1053195; settings: ref PubChem Bioassay AID 1053195; cited from earlier work
[13] = tested on: Antagonist, peroxisome proliferator-activated receptor gamma (PPARg); set-up: method as in PubChem Bioassay AID 743191; settings: ref PubChem Bioassay AID 743191; cited from earlier work
[14] = tested on: Activators, heat shock response; set-up: method as in PubChem Bioassay AID 743210; settings: ref PubChem Bioassay AID 743210; cited from earlier work
Anti-Inflammatory model [15] = tested on: Anti-Inflammatory model; set-up: method as in PubChem Bioassay AID 1309; settings: ref PubChem Bioassay AID 1309; cited from earlier work
[16] = tested on: Agonist, androgen receptor (AR); set-up: method as in PubChem Bioassay AID 743040; settings: ref PubChem Bioassay AID 743040; cited from earlier work
[17] = tested on: Chlamydomonas reinhardtii Algae Gravitaxis; set-up: method as in PubChem Bioassay AID 463189; settings: ref PubChem Bioassay AID 463189; cited from earlier work
[18] = tested on: Cytotoxicity, Agonist, hypoxia; set-up: method as in PubChem Bioassay AID 1224844; settings: ref PubChem Bioassay AID 1224844; cited from earlier work
Agonist, p53 = tested on: Agonist, p53; set-up: method as in PubChem Bioassay AID 720552; settings: ref PubChem Bioassay AID 720552; cited from earlier work
[19] = tested on: Cytotoxicity, Activate, aryl hydrocarbon receptor (AhR); set-up: method as in PubChem Bioassay AID 743086; settings: ref PubChem Bioassay AID 743086; cited from earlier work
[20] = tested on: Antagonist, thyroid receptor (TR); set-up: method as in PubChem Bioassay AID 743067; settings: ref PubChem Bioassay AID 743067; cited from earlier work
[21] = tested on: Cytotoxicity, Agonist, Histone H2A.x; set-up: method as in PubChem Bioassay AID 1224847; settings: ref PubChem Bioassay AID 1224847; cited from earlier work
[22] = tested on: Agonist, constitutive androstane receptor (CAR); set-up: method as in PubChem Bioassay AID 1224839; settings: ref PubChem Bioassay AID 1224839; cited from earlier work
[23] = tested on: Anticancer, non-Hodgkin lymphoma; set-up: method as in PubChem Bioassay AID 651558; settings: ref PubChem Bioassay AID 651558; cited from earlier work
[24] = tested on: Cytotoxicity, Agonist, peroxisome proliferator-activated receptor delta (PPARd); set-up: method as in PubChem Bioassay AID 743211; settings: ref PubChem Bioassay AID 743211; cited from earlier work

## COc1cc([C@@H]2c3cc4c(cc3[C@H](O)[C@H]3COC(=O)[C@H]23)OCO4)cc(OC)c1OC [Podophyllotoxin, podophyllotoxin]
Anti-Inflammatory model [1]
  Exper. Activity: Inactive
[2]
  Exper. Activity: Inactive
[3]
  Exper. Activity: Inactive
Anticancer, Leukemia [4]
  Exper. Activity: Inactive
[5]
  Exper. Activity: Inactive
Agonist, AP-1
  Exper. Activity: Active
Agonist, Histone H2A.x
  Exper. Activity: Inactive
Anti-Inflammatory model [6]
  Exper. Activity: Active
[7]
  Exper. Activity: Active
[8]
  Exper. Activity: Inactive
[9]
  Exper. Activity: Inactive
[10]
  Exper. Activity: Active
[11]
  Exper. Activity: Active
Anticancer, Sarcoma
  Exper. Activity: Active
Anticancer, Leukemia [12]
  Exper. Activity: Inactive
[13]
  Exper. Activity: Inactive
[14]
  Exper. Activity: Inactive
Anti-Inflammatory model [15]
  Exper. Activity: Active
[16]
  Exper. Activity: Inactive
[17]
  Exper. Activity: Inactive
[18]
  Exper. Activity: Inactive
Agonist, p53
  Exper. Activity: Inactive
[19]
  Exper. Activity: Inactive
[20]
  Exper. Activity: Active
[21]
  Exper. Activity: Inactive
[22]
  Exper. Activity: Inactive
[23]
  Exper. Activity: Active
[24]
  Exper. Activity: Inactive
